The values that follow come from publication PMC11984586, “A novel spider toxin as a selective antagonist of the Kv1 subfamily of voltage-gated potassium channels through gating modulation” (The Journal of Biological Chemistry, 2025).

Common to all, as to format: cell-based
One assay concerns the target T1, hKv1.2 (Homo sapiens, UniProt P16389).
T1 construct: expressed in transfected cells; host or cells: CHO-K1
In words: Whole-cell patch clamp, Kv1.2 ionic current in CHO-K1 cells. The conditions noted are these: +30 mV, 500 ms, holding −80 mV, mean ± SD, n = 4–7, read-out: IC50, inhibition of Kv1.2 current (full inhibition). The method, then: (§1) The cDNA of hKv1.1, hKv1.2, hKv1.3, rKv1.4, hKv1.5, mKv1.6, and hKv1.7 were subcloned into mammalian expression vectors pcDNA3.1 or pCMV-blank vectors, as well as other plasmids described previously ([35]). Channel mutants were generated by site-directed mutations. Briefly, the parental channel plasmid was amplified using a pair of oppositely directed primers harboring the designed mutation site, with KOD Fx (TOYOBO Co, Ltd). The resulting PCR mix was treated with FastDigest DpnI (Thermo Fisher Scientific) to remove the methylated template. Ten microliters of the digested product was then used to transform 100 μl E. coli DH5α competent cells. […]
(§2) CHO-K1 cells were selected for expressing Kv channels due to their lack of endogenous Kv channels, while HEK293 or ND7/23 cells were used for Nav and Cav channel expression. […] After 4 to 6 h transfection, cells were seeded onto poly-lysine–coated coverslips, and 24 to 36 h later, transfected cells were ready for patch-clamp analysis. […]
(§3) For Kv current recordings, the bath solution contained (in mM) the following: 140 NaCl, 5 KCl, 1 MgCl2, 2 CaCl2, 10 glucose, and 10 Hepes (pH 7.3, adjusted with NaOH), and the pipette solution contained (in mM) the following: 140 KCl, 2.5 MgCl2, 11 EGTA, and 10 Hepes (pH 7.3, adjusted with KOH). […] The steady-state fast inactivation of Kv1.3 was measured using a two-pulses protocol. […]
In general terms: In patch-clamp work, channel activity is measured electrically.

For assay [1], the target named is T2, Kv1.3/I472C mutant (Kv1.3∗) (Homo sapiens, UniProt P22001, I472C).
T2 construct: expressed in transfected cells; host or cells: HEK293T
In words: Gating-current recording, Kv1.3* in HEK293T cells. The conditions noted are these: mean ± SD; for IC50: held at −100 mV, 50 ms depolarization to +30 mV, HEK293T. As for the experimental part: The cDNA of hKv1.1, hKv1.2, hKv1.3, rKv1.4, hKv1.5, mKv1.6, and hKv1.7 were subcloned into mammalian expression vectors pcDNA3.1 or pCMV-blank vectors, as well as other plasmids described previously ([35]). Channel mutants were generated by site-directed mutations. Briefly, the parental channel plasmid was amplified using a pair of oppositely directed primers harboring the designed mutation site, with KOD Fx (TOYOBO Co, Ltd). The resulting PCR mix was treated with FastDigest DpnI (Thermo Fisher Scientific) to remove the methylated template. Ten microliters of the digested product was then used to transform 100 μl E. coli DH5α competent cells. Transformants were randomly picked and sequenced to confirm the presence of the intended mutation.
CHO-K1 cells were selected for expressing Kv channels due to their lack of endogenous Kv channels, while HEK293 or ND7/23 cells were used for Nav and Cav channel expression. CHO-K1 cells were cultured in a Dulbecco's modified Eagle's medium/Ham's F-12 nutrient mixture (DMEM-F12) medium, and HEK293T and ND7/23 cells in DMEM medium, all supplemented with 10% fetal bovine serum and 1% penicillin-streptomycin (all from Gibco, Thermo Fisher Scientific, Inc) under standard conditions (37 °C, 5% CO2, and saturated humidity). These cell lines were purchased from Stem Cell Bank, Chinese Academy of Sciences. Channel plasmids were cotransfected with pEGFP-N1 (encoding GFP) into the respective cells using lipofectamine 2000, following the manufacturer's instructions (Invitrogen, Thermo Fisher Scientific, Inc.). […] After 4 to 6 h transfection, cells were seeded onto poly-lysine–coated coverslips, and 24 to 36 h later, transfected cells were ready for patch-clamp analysis. […]
Gating currents were recorded by transfecting HEK293T cells with a saturating dose of plasmid to ensure maximal channel expression. […] Gating charge movement (Q) was determined by integrating the area under the IgON and IgOFF traces, representing voltage sensor movement in response to depolarizing pulses. […]

In a further assay the target is T3, rKv1.4 (Rattus norvegicus, UniProt P15385).
T3 construct: expressed in transfected cells; host or cells: CHO-K1
Kind of assay: Whole-cell patch clamp, Kv1.4 ionic current in CHO-K1 cells. As for the experimental part:
as §1, §2, §3

Structures are written as SMILES. Like-named read-outs stand apart in the source and are kept apart here. Bridge positions count the residues as written; N and C are the ends. Peptide text beside a SMILES is read from it.

T2 sequence (P22001 whole entry I472C): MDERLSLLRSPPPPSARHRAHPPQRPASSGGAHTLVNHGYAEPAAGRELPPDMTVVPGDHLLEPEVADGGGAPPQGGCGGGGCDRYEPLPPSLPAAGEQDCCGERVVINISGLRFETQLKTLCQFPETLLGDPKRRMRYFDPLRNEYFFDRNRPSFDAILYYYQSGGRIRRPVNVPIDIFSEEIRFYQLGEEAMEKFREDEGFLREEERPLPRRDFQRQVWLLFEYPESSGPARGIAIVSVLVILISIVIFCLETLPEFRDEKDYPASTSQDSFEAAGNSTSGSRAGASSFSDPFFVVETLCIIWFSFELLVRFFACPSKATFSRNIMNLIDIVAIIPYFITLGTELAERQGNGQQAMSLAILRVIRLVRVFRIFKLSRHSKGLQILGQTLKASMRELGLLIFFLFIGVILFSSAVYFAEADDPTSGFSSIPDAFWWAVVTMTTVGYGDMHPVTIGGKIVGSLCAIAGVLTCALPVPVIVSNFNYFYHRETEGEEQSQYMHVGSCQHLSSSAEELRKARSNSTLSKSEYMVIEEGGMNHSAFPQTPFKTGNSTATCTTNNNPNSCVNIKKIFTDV
T3 sequence (P15385 whole entry): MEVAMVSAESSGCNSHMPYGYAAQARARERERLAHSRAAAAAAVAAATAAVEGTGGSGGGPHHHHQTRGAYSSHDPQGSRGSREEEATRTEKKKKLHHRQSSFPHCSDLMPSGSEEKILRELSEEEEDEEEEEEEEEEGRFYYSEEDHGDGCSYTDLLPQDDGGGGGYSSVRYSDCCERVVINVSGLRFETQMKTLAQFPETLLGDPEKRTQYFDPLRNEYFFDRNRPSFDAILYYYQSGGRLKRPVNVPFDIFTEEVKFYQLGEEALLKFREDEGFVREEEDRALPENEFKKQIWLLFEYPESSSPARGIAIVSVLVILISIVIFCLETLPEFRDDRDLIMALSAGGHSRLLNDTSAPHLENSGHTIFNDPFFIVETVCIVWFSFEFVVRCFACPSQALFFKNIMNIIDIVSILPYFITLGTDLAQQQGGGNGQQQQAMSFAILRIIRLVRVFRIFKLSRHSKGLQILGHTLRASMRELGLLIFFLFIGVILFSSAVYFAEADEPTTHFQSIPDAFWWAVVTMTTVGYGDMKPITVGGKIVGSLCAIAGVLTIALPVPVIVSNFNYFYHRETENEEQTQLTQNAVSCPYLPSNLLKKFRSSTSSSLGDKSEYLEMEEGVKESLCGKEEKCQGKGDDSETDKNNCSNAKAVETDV
T1 sequence (P16389 whole entry): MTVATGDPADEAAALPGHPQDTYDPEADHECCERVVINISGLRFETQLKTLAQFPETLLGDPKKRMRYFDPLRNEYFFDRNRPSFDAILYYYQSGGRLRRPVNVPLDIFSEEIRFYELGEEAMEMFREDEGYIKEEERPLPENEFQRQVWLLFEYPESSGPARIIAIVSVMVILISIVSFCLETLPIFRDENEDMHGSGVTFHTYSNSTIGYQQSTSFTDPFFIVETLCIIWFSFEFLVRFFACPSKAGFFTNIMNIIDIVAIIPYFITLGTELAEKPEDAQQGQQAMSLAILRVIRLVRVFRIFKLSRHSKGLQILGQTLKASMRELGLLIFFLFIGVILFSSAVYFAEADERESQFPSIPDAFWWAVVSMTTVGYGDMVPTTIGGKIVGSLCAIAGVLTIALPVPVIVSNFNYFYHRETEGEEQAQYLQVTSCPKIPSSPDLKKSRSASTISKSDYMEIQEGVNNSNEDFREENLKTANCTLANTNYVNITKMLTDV

For orientation: IC50 means the concentration that inhibits the measured activity by half. As to `CC[C@H](C)[C@@H]1NC(=O)[C@H](Cc2ccc(O)cc2)NC(=O)[C@H](CCC(N)=O)NC(=O)[C@@H]2CCCN2C(=O)[C@@H]2CSSC[C@H](NC(=O)[C@H](C)NC(=O)[C@H](CO)NC(=O)[C@H](CCC(=O)O)NC(=O)[C@H](CCC(=O)O)NC(=O)[C@@H](N)[C@@H](C)O)C(=O)NCC(=O)NCC(=O)N[C@@H](Cc3ccccc3)C(=O)N[C@@H](CC(N)=O)C(=O)N[C@@H](C)C(=O)N[C@@H](CCCNC(=N)N)C(=O)N[C@H]3CSSC[C@H](NC1=O)C(=O)N[C@@H](CCCCN)C(=O)NCC(=O)N[C@@H](Cc1c[nH]c4ccccc14)C(=O)N[C@@H](CCCNC(=N)N)C(=O)N[C@@H]([C@@H](C)O)C(=O)N[C@@H](CCCCN)C(=O)N[C@@H](CCCNC(=N)N)C(=O)N[C@H](C(=O)N[C@@H](CC(C)C)C(=O)N[C@@H](CC(N)=O)C(=O)N1CCC[C@H]1C(=O)O)CSSC[C@H](NC(=O)[C@H](CCCCN)NC(=O)[C@H](Cc1c[nH]cn1)NC(=O)[C@H](CC(C)C)NC(=O)[C@@H]1CCCN1C3=O)C(=O)N2` [MrVIII] (H-TEESACGGFNARCPLHKCCPQYICKGWRTKRCLNP-OH; disulfide 6-19, 13-24, 18-32; N-terminus and C-terminus assumed), the concentration for half-maximal inhibition (IC50) came to 0.5 ± 0.1 nM at hKv1.2; 7 ± 4.2 nM in assay [1] (n = 8, read-out: IC50, inhibition of IgOFF gating current of Kv1.3∗); 5 ± 3.4 nM in assay [1] (n = 8, read-out: IC50, inhibition of IgON gating current of Kv1.3∗); 62.7 ± 56.9 nM on rKv1.4 (current measured at 50 ms of a 500 ms depolarization to +30 mV, mean ± SD, n = 4–7, SD). Besides, the “Va of Q-V relationship of Kv1.3∗ after toxin” value in assay [1] (5 nM MrVIII, before toxin −30.1 ± 7.1 mV, n = 5) is −27.4 ± 10.3 mV. Moreover, the “enhancement of the 495 ms current of Kv1.4” value on rKv1.4 (in the presence of MrVIII (10 μM saturating), +30 mV, 495 ms) was determined as 3.9 fold.
